Assays:
laboratory rats = assay: SIS, scopolamine induced swimming test; format: in vivo, rat; conditions: for reversal of scopolamine-induced swimming hyperactivity: rats given scopolamine
Protocol: In a second screening assay, designated SIS, the scopolamine induced swimming test, the ability of representative compounds of the present invention to reverse the hyperactive swimming behavior of laboratory rats given scopolamine was assessed. In this test, untreated rats will generally swim distances between 20 to 30 meters during a five minute test period. […] The effect of scopolamine is centrally mediated; the ability of a test compound to reverse the hyperactive swimming behavior induced by scopolamine is thus a measure of the central cholinergic activity of the compound.

[1] = test system: Aged humans and nonhuman primates; conditions: aged humans and nonhuman primates with decreased cognition; cited from earlier work
[2] = target: central muscarinic binding site; assay: RQNB screening assay: inhibition of radio-labeled quinuclidinyl benzilate (antagonist) binding, rat cerebral cortex tissue; conditions: R3 is hydrogen, double bond: No; for IC50: rat cerebral cortex; for % Inhib. RQNB: @ 10^-6 M
Protocol: (§1) The biological activity of compounds of the present invention was evaluated using a number of tests. The activity of compounds of this invention as central muscarinic binding site agonists and antagonists was measured. In the RQNB screening assay, which is described more fully by Mark Watson, et al, J. Pharmocol. Exp. Ther., 237 (2): 411 (1986), rat cerebral cortex tissue was treated with radio-labeled quinuclidinyl benzilate, a known muscarinic binding site antagonist. The % inhibition concentration of test compound required to inhibit 50% of the binding of this muscarinic antagonist was then determined.

[3] = target: central muscarinic binding site; assay: RCMD screening assay: inhibition of radio-labeled cis-methyldioxolane (agonist) binding, rat cerebral cortex tissue; conditions: R3 is hydrogen, double bond: No; for IC50: rat cerebral cortex; for % Inhib. RCMD: @ 10^-7 M
Protocol: as §1
Similarly, in the RCMD screening assay, described more fully by T. W. Vickeroy, et al, J. Pharmacol. Exp. Ther., 229 (3): 747 (1984), rat cerebral cortex tissue was treated with radio-labeled cis-methyldioxolane,a known muscarinic binding site agonist. The concentrations of test compounds required to inhibit 50% of the binding of this muscarinic agonist were then determined.

[4] = test system: patients clinically diagnosed as having presenile primary degenerative dementia; conditions: cited from earlier work
[5] = in vivo; cited from earlier work

Structure (SMILES): CNC(=O)Oc1ccc2c(c1)[C@]1(C)CCN(C)[C@@H]1N2C [physostigmine]
- reversal of scopolamine-induced swimming hyperactivity (laboratory rats): can be reversed
- memory [1]: improved memory

Structure (SMILES): C#CCON=CC1CN2CCC1CC2 (stereo not drawn) [R1 = Hydrogen, R2 = 2-Propynyl, 1-Azabicyclo[2.2.2]octane-3-carboxaldehyde, O-2-propynyloxime]
- IC50 [2]: 0.348 µM
- IC50 [3]: 0.027 µM

Structure (SMILES): C#CCON=C(C)C1CN2CCC1CC2 (stereo not drawn) [R1 = Methyl, R2 = 2-Propynyl, Ethanone,1-(1-Azabicyclo[2.2.2]oct-3-yl)-, O-2-propynyloxime]
- % Inhib. RQNB [2]: 81%
- % Inhib. RCMD [3]: 78%

Structure (SMILES): CON=CC1CN2CCC1CC2 (stereo not drawn) [R1 = Hydrogen, R2 = Methyl, 1-Azabicyclo[2.2.2]octane-3-carboxaldehyde, O-methyloxime]
- ED50 (laboratory rats; Rattus norvegicus, PO, laboratory rats, read-out: ED50 required to demonstrate reversal of the scopolamine-induced hyperactive swimming activity): 1.8 mg/kg
- IC50 [2]: 1.36 µM
- IC50 [3]: 0.0118 µM

Structure (SMILES): COC(=O)C1=CCCN(C)C1 [arecoline, methyl ester of 1,2,5,6-tetrahydro-1-methyl-3-pyridinecarboxylic acid]
- reversal of scopolamine-induced swimming hyperactivity (laboratory rats): can be reversed
- test of picture recognition ([4]; double blind study): Significant improvement
- amelioration of symptoms of cognitive disorders ([4]; patients with presenile primary degenerative dementia): effective in ameliorating some of the symptoms of cognitive disorders

Structure (SMILES): C=CCON=CC1CN2CCC1CC2 (stereo not drawn) [R1 = Hydrogen, R2 = Allyl, 1-Azabicyclo[2.2.2]octane-3-carboxaldehyde, O-2-propenyloxime]
- IC50 [2]: 0.146 µM
- IC50 [3]: 0.117 µM

Structure (SMILES): CON=C(C)C1CN2CCC1CC2 (stereo not drawn) [R1 = Methyl, R2 = Methyl, Ethanone,1-(1-Azabicyclo[2.2.2]oct-3-yl)-, O-methyloxime]
- % Inhib. RQNB [2]: 54%
- % Inhib. RCMD [3]: 90%

Structure (SMILES): CN1[C@@H]2C[C@@H](OC(=O)[C@H](CO)c3ccccc3)C[C@H]1[C@@H]1O[C@@H]12 [scopolamine]
- increase of swimming distance above baseline values (laboratory rats; scopolamine 0.1 mg/kg, five minute test period): 75-125%

Structure (SMILES): Nc1ccncc1N [3,4-diaminopyridine]
- age-related cognitive deficits [5]: ameliorate age-related cognitive deficits

From patent US4937239A, “Azabicycloalkane oxime & azabicycloalkene oxime muscarinic agents” (Warner-Lambert Company, priority 1989, dated 1990)
